Measured values published in patent US7892778B2, “Method of screening for gamma-secretase activity” (Sanofi-Aventis Deutschland GmbH, priority 2003, dated 2011).

Key:
Type in all cases: cell-based, human
γ-secretase [1] = assay: Stably transfected HEK293 cell clone (SP3-C55-GAL4/VP16 + MRG5-luciferase), luciferase activity; conditions: stably double-transfected HEK293 clone, 24 h treatment; read-out: IC50, inhibition of luciferase activity
Protocol: HEK293 cells (Human Embryonic Kidney cell line, (ATCC)) were co-transfected with the plasmid SP3-C55-GAL4/VP16 and the luciferase reporter plasmid PGL2-MRG5(described in Example 2).
Subsequently, stable cell lines were selected by incubation with 400 μg/ml Geneticin (GibcoBRL) to select for Neomycin resistant clones and thereafter characterized for stable expression of SP3-C55-GAL4/VP16 and luciferase.
A clone of HEK293 cells that stably express both the SP3-C55-GAL4/VP16 and the MRG5-luciferase constructs was identified according to Example 14.
For the identification of γ-secretase inhibitors, stably double-transfected HEK293 cells (see Example 14) are incubated, in Multi-Well 96 plates, in the presence of the compound(s) under investigation (e.g., compound library screening) at a concentration 10 μM or less in the assay, and luciferase activity is determined 24 hours later. Luciferase activity can be quantified with the Luciferase Assay System kit (Promega), the Bright-Glo Luciferase Assay kit (Promega), or any other method for luciferase quantification. A decrease in luciferase activity reflects a decrease in γ-secretase activity.

γ-secretase [2] = assay: Transiently transfected HEK293 cells, Aβ in the cell medium by ELISA (4G8/6E10); conditions: HEK293 transiently co-transfected; Aβ in cell medium quantified by ELISA
From the text: For expression in mammalian cells, the signal peptide in SP2-C-GAL4/VP16-100 was replaced, as described in Example 8, with a mammalian signal peptide derived from the basal membrane protein BM40, which is known for high level expression (SP3; SEQ ID NO. 13). Processing of γ-secretase was monitored by quantifying the secretion of Aβ into the culture medium. The secreted Aβ was detected by a sandwich ELISA using monoclonal antibodies 6E10 and biotinylated 4G8 (Senetek PLC, Napa, Calif., USA; cf. Kim et al., 1990) as capture and detection antibodies, respectively.
(§1) HEK293 cells were co-transfected with the SP3-C55-GAL4/VP16 vector (0.03 μg) and the pGL2-MRG5 luciferase reporter vector (1 μg) in Multi-Well 12 plates.
(§2) Luciferase activity was quantified by the Bright-Glo Luciferase Assay kit (Promega). Aβ in the cell medium was quantified by ELISA, using the antibodies 4G8 and 6E10 (from Senetek), as described in Example 11. These antibodies are specific for amino acids 17-24 (4G8) and 1-17 (6E10) of the Aβ-peptide.

γ-secretase [3] = assay: Transiently transfected HEK293 cells (SP3-C55-GAL4/VP16 + pGL2-MRG5 luciferase reporter), luciferase activity; conditions: HEK293 transiently co-transfected with SP3-C55-GAL4/VP16 vector and pGL2-MRG5 luciferase reporter vector; read-out: IC50, inhibition of luciferase activity and Aβ-production
Protocol: as §1, §2

Row | IC50 (γ-secretase [1]) [nM] | IC50 (γ-secretase [3]) [nM] | Structure (SMILES) | Aβ-production (γ-secretase [2])
1 | 230 | 14 | C[C@H](NC(=O)Cc1cc(F)cc(F)c1)C(=O)N[C@H](C(=O)OC(C)(C)C)c1ccccc1 [DAPT] | inhibited dose-dependently
2 | 130 | 19 | CC(C)C[C@H](NC(=O)[C@H](Cc1ccccc1)C[C@@H](O)[C@H](Cc1ccccc1)NC(=O)OC(C)(C)C)C(=O)N[C@@H](Cc1ccccc1)C(N)=O [L-685,458] | inhibited dose-dependently
